Counter-ions that a name gives are not always drawn. Like-named read-outs stand apart in the source and are kept apart here.
How the values were obtained:
[1] = tested on: SMN2 minigene (full length SMN2 minigene mRNA containing SMN2 exon 7); experiment: SMN2 minigene mRNA splicing RT-qPCR assay in cultured cells; format: cell-based, human; settings: Homo sapiens, HEK293-H, read-out: EC1.5x for production of full length SMN2 mRNA
Method in brief: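 Read-out: full-length (exon 7-included) SMN2 minigene mRNA by multiplex RT-qPCR with GAPDH, efficiency-corrected (1+E)^−Ct, GAPDH-normalized and divided by vehicle. Stably transfected HEK293H cells, 24 h compound exposure, duplicates per concentration. Value is EC1.5x, reported as star ranges.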

Smn protein = Smn protein assay in cultured cells (SMN HTRF); format: cell-based, human; settings: for EC1.5x (concentration giving 1.5-fold Smn protein increase): SMA Type 1 patient fibroblast cells (GM03813), 7-point concentration curve, SMN HTRF, concentration producing 1.5 times Smn protein vs DMSO vehicle control, read-out: EC1.5x for Smn protein expression
Method in brief: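 Lysates in RIPA with protease inhibitors are incubated overnight at room temperature with HTRF anti-SMN antibodies. EC1.5x is derived from fold increase in ΔF over vehicle.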

[2] = HEK293H cells stably transfected with SMN2-A minigene, 24 hours, 7-point concentration curve, 1.5-fold relative to vehicle-treated cells
[3] = SMA patient fibroblast cells, 48 hours, 7-point concentration data, fold increase relative to vehicle control (SMN HTRF)

| Compound | EC (1.5-fold) [1, 2] | maximum fold (Fold) increase of Smn protein (Smn protein; [3]) | EC1.5x (concentration giving 1.5-fold Smn protein increase) (Smn protein; 48 hours) | EC (1.5-fold) ([1]; 24 h) | maximum fold (Fold) increase of Smn protein (Smn protein) |
| --- | --- | --- | --- | --- | --- |
| Cc1cn2cc(-c3cc4ccc(N5CCN6C(=O)CCC6C5)cc4oc3=O)nc2c(C)n1 (centres unmarked) [Compound 973, 2-[3-(6,8-dimethylimidazo[1,2-a]pyrazin-2-yl)-2-oxo-2H-chromen-7-yl]hexahydropyrrolo[1,2-a]pyrazin-6(2H)-one] | 3 to 30 µM | * (maximum fold increase of ≤1.2) |  |  |  |
| Cc1cn2cc(-c3cc4ccc(N5CCN(CCO)[C@@H](C)C5)cc4oc3=O)nc2c(C)n1 [Compound 888, 3-(6,8-dimethylimidazo[1,2-a]pyrazin-2-yl)-7-[(3S)-4-(2-hydroxyethyl)-3-methylpiperazin-1-yl]-2H-chromen-2-one] | < 0.1 µM | ***** (fold increase >1.65) | < 300 nM |  |  |
| CCCN1CCC(c2ccc3cc(-c4cn5cc(C)ncc5n4)c(=O)oc3c2)CC1 [Compound 887, 3-(6-methylimidazo[1,2-a]pyrazin-2-yl)-7-(1-propylpiperidin-4-yl)-2H-chromen-2-one] | < 0.1 µM | ***** (fold increase >1.65) | < 300 nM |  |  |
| Cc1nccn2cc(-c3cc4ccc(N5CCN[C@@H](C)C5)cc4oc3=O)nc12 [Compound 573, 3-(8-methylimidazo[1,2-a]pyrazin-2-yl)-7-[(3S)-3-methylpiperazin-1-yl]-2H-chromen-2-one] | 0.3 to 1 µM | **** (fold increase between >1.5 and ≤1.65) | < 300 nM |  |  |
| Cc1cc2oc(-c3cc4ccc(N5CCNCC5)cc4oc3=O)cc2c(C)n1 [Compound 831, 3-(4,6-dimethylfuro[3,2-c]pyridin-2-yl)-7-(piperazin-1-yl)-2H-chromen-2-one] | 1 to 3 µM | * (maximum fold increase of ≤1.2) |  |  |  |
| C[C@@H]1CN(c2ccc3cc(-c4cc5ncccn5c4)c(=O)oc3c2)C[C@H](C)N1 [Compound 580, 7-[(3R,5S)-3,5-dimethylpiperazin-1-yl]-3-(pyrrolo[1,2-a]pyrimidin-7-yl)-2H-chromen-2-one] | 1 to 3 µM | * (maximum fold increase of ≤1.2) |  |  |  |
| CC(C)c1nccc(-c2cc3ccc(N4CCNCC4)cc3oc2=O)n1.Cl [Compound 279, 7-(piperazin-1-yl)-3-[2-(propan-2-yl)pyrimidin-4-yl]-2H-chromen-2-one hydrochloride] | 1 to 3 µM | * (maximum fold increase of ≤1.2) |  |  |  |
| Cc1cn2cc(-c3cc4ccc(N5CCNCC5)cc4oc3=O)nc2c(C)n1 [Compound 515, 3-(6,8-dimethylimidazo[1,2-a]pyrazin-2-yl)-7-(piperazin-1-yl)-2H-chromen-2-one] | < 0.1 µM | ***** (fold increase >1.65) | < 300 nM |  |  |
| Cc1cccn2cc(-c3cc4ccc(N5C[C@H](C)NC[C@H]5C)cc4oc3=O)nc12 [Compound 166, 7-[(2R,5S)-2,5-dimethylpiperazin-1-yl]-3-(8-methylimidazo[1,2-a]pyridin-2-yl)-2H-chromen-2-one] | 1 to 3 µM | ** (fold increase between >1.2 and ≤1.35) |  |  |  |
| Cc1cn2cc(-c3cc4ccc(N5C[C@@H]6CCCN(C)[C@@H]6C5)cc4oc3=O)nc2c(C)n1 [Compound 795, 3-(6,8-dimethylimidazo[1,2-a]pyrazin-2-yl)-7-[(4aS,7aS)-1-methyloctahydro-6H-pyrrolo[3,4-b]pyridin-6-yl]-2H-chromen-2-one] | < 0.1 µM | **** (fold increase between >1.5 and ≤1.65) | < 300 nM |  |  |
| O=c1oc2cc(OC[C@@H]3CCCN3)ccc2cc1-c1nc2ccccc2s1 [Compound 56, 3-(1,3-benzothiazol-2-yl)-7-[(2S)-pyrrolidin-2-ylmethoxy]-2H-chromen-2-one] | 3 to 30 µM | * (maximum fold increase of ≤1.2) |  |  |  |
| Cc1cn2cc(-c3cc4ccc(N5CCN(C)[C@@H](C(C)C)C5)cc4oc3=O)nc2c(C)n1 [Compound 809, 3-(6,8-dimethylimidazo[1,2-a]pyrazin-2-yl)-7-[(3S)-4-methyl-3-(propan-2-yl)piperazin-1-yl]-2H-chromen-2-one] | 0.3 to 1 µM | **** (fold increase between >1.5 and ≤1.65) | 1000 to 3000 nM |  |  |
| COc1ccc(-c2cc3ccc(N4CCN(C)CC4)cc3oc2=O)cc1OC [Compound 317, 3-(3,4-dimethoxyphenyl)-7-(4-methylpiperazin-1-yl)-2H-chromen-2-one] | 3 to 30 µM | * (maximum fold increase of ≤1.2) |  |  |  |
| O=c1oc2cc(N3CCNCC3)ccc2cc1-c1nc2c(Cl)cccc2s1 [Cpd 5, 3-(4-chloro-1,3-benzothiazol-2-yl)-7-(piperazin-1-yl)-2H-chromen-2-one hydrochloride] | 0.3 to 1 µM | * (maximum fold increase of ≤1.2) |  |  |  |
| CC[C@H]1CN(c2ccc3cc(-c4cn5cc(C)nc(C)c5n4)c(=O)oc3c2)CCN1 [Compound 772, 3-(6,8-dimethylimidazo[1,2-a]pyrazin-2-yl)-7-[(3S)-3-ethylpiperazin-1-yl]-2H-chromen-2-one] | < 0.1 µM | ***** (fold increase >1.65) | < 300 nM |  |  |
| Cc1cn2cc(-c3cc4ccc(N5CCN[C@H](C)C5)cc4oc3=O)nc2c(C)n1 [Cpd 536, 3-(6,8-dimethylimidazo[1,2-a]pyrazin-2-yl)-7-[(3R)-3-methylpiperazin-1-yl]-2H-chromen-2-one] | < 0.1 µM | ***** (fold increase >1.65) | < 300 nM |  |  |
| O=c1oc2cc(OC3CCNC3)ccc2cc1-c1cn2cccnc2n1 (stereo in doubt) [Cpd 321, 3-(imidazo[1,2-a]pyrimidin-2-yl)-7-[(3R)-pyrrolidin-3-yloxy]-2H-chromen-2-one hydrochloride (1:2)] |  |  |  | 1 to 3 µM | ** (key: *: maximum fold increase of ≤1.2; **: fold increase between >1.2 and ≤1.35; ***: fold increase between >1.35 and ≤1.5; ****: fold increase between >1.5 and ≤1.65; *****: fold increase >1.65) |
| Cc1cn2cc(-c3cc4ccc(N5CCNCC5)cc4oc3=O)ccc2n1 [Compound 677, 3-(2-methylimidazo[1,2-a]pyridin-6-yl)-7-(piperazin-1-yl)-2H-chromen-2-one] | < 0.1 µM | **** (fold increase between >1.5 and ≤1.65) | < 300 nM |  |  |
| Cc1cn2cc(-c3cc4ccc(N5CCC(CNC(C)C)CC5)cc4oc3=O)cc2c(C)n1 [Compound 790, 3-(1,3-dimethylpyrrolo[1,2-a]pyrazin-7-yl)-7-{4-[(propan-2-ylamino)methyl]piperidin-1-yl}-2H-chromen-2-one] | 0.3 to 1 µM | ** (fold increase between >1.2 and ≤1.35) |  |  |  |
| Cc1cn2cc(-c3cc4ccc(N5C[C@@H]6C[C@H]5CN6)cc4oc3=O)nc2c(C)n1 [Compound 648, 7-[(1S,4S)-2,5-diazabicyclo[2.2.1]hept-2-yl]-3-(6,8-dimethylimidazo[1,2-a]pyrazin-2-yl)-2H-chromen-2-one] | < 0.1 µM | ***** (fold increase >1.65) | < 300 nM |  |  |
| Cc1cn2cc(-c3cc4ccc(N5CCN[C@H](C)C5)cc4oc3=O)ccc2n1 [Compound 652, 3-(2-methylimidazo[1,2-a]pyridin-6-yl)-7-[(3R)-3-methylpiperazin-1-yl]-2H-chromen-2-one] | < 0.1 µM | **** (fold increase between >1.5 and ≤1.65) | < 300 nM |  |  |
| Cl.O=c1oc2cc(N3CCNCC3)ccc2cc1-c1nc2c(F)cccc2o1 [Compound 40, 3-(4-fluoro-1,3-benzoxazol-2-yl)-7-(piperazin-1-yl)-2H-chromen-2-one hydrochloride] | 1 to 3 µM | ** (fold increase between >1.2 and ≤1.35) |  |  |  |
| Cc1cn2cc(-c3cc4ccc(N5CCN[C@@H](C(C)C)C5)cc4oc3=O)nc2c(C)n1 [Compound 808, 3-(6,8-dimethylimidazo[1,2-a]pyrazin-2-yl)-7-[(3S)-3-(propan-2-yl)piperazin-1-yl]-2H-chromen-2-one] | < 0.1 µM | **** (fold increase between >1.5 and ≤1.65) | < 300 nM |  |  |
| O=c1oc2cc(N3CCNCC3)ccc2cc1-c1nc2ccccc2s1 [Cpd 4, 3-(1,3-benzothiazol-2-yl)-7-(piperazin-1-yl)-2H-chromen-2-one hydrochloride] | 1 to 3 µM | * (maximum fold increase of ≤1.2) |  |  |  |
| Cc1cn2cc(-c3cc4ccc(N5CCC(C#N)CC5)cc4oc3=O)nc2c(C)n1 [Compound 974, 1-[3-(6,8-dimethylimidazo[1,2-a]pyrazin-2-yl)-2-oxo-2H-chromen-7-yl]piperidine-4-carbonitrile] | 3 to 30 µM | ** (fold increase between >1.2 and ≤1.35) |  |  |  |

— patent publication USRE47689E1, “Compounds for treating spinal muscular atrophy” (PTC Therapeutics, Inc., priority 2011, dated 2019)
